Measurements as given in PubChem BioAssay (NCI).
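Cells were grown in 96-well plates and exposed to each compound for 48 hours at five concentrations; endpoints were interpolated linearly between bracketing concentrations, or set to the highest concentration if not reached. At the GI50, growth is halved. TGI: total growth inhibition.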

Key:
Assay in all cases: growth of human tumour cells (NCI), 48 h; in the data active means GI50 below about 0.43 µM; inactive means the rest
HT29 colon = system: HT29 colon
SK-MEL-28 melanoma = system: SK-MEL-28 melanoma
UO-31 renal = system: UO-31 renal
NCI-H460 lung = system: NCI-H460 lung
OVCAR-4 ovarian = system: OVCAR-4 ovarian
SF-268 CNS = system: SF-268 CNS
KM12 colon = system: KM12 colon
M14 melanoma = system: M14 melanoma
SF-539 CNS = system: SF-539 CNS
UACC-62 melanoma = system: UACC-62 melanoma

Nc1ncnc2c1ncn2C1OC(CSC(F)(F)F)C(O)C1O (stereo not given)
> 100 µM: TGI (HT29 colon) | TGI (SK-MEL-28 melanoma) | TGI (UO-31 renal) | TGI (NCI-H460 lung) | TGI (OVCAR-4 ovarian) | TGI (SF-268 CNS) | TGI (KM12 colon) | TGI (M14 melanoma) | TGI (SF-539 CNS) | TGI (UACC-62 melanoma)

C=C1C(=O)O[C@H]2[C@H]1CC/C(Cn1cc(CNCCc3c[nH]c4ccc(Cl)cc34)nn1)=C\CC[C@@]1(C)O[C@@H]21
31.2 µM: TGI (M14 melanoma)
19.7 µM: TGI (OVCAR-4 ovarian)
16.9 µM: TGI (UACC-62 melanoma)
14.6 µM: TGI (SF-539 CNS)
inactive: GI50 (HT29 colon) 3.32 µM | GI50 (SK-MEL-28 melanoma) 10.7 µM | GI50 (UO-31 renal) 6.23 µM | GI50 (NCI-H460 lung) 49.1 µM | GI50 (OVCAR-4 ovarian) 5.23 µM | GI50 (SF-268 CNS) 12.5 µM | GI50 (KM12 colon) 17.1 µM | GI50 (M14 melanoma) 13.7 µM | GI50 (SF-539 CNS) 4.23 µM | GI50 (UACC-62 melanoma) 4.65 µM
33.6 µM: TGI (SF-268 CNS)
11.2 µM: TGI (HT29 colon)
19.4 µM: TGI (UO-31 renal)
> 100 µM: TGI (NCI-H460 lung)
25.2 µM: TGI (SK-MEL-28 melanoma)
44.1 µM: TGI (KM12 colon)

Cc1cc(=O)n(-c2ccccc2)c(=O)o1
> 100 µM: TGI (HT29 colon) | TGI (SK-MEL-28 melanoma) | TGI (UO-31 renal) | TGI (NCI-H460 lung) | TGI (OVCAR-4 ovarian) | TGI (SF-268 CNS) | TGI (KM12 colon) | TGI (M14 melanoma) | TGI (SF-539 CNS) | TGI (UACC-62 melanoma)

COc1cc(N2CCN(C(C)C)CC2)ccc1Nc1nc(Nc2cccc3ncccc23)c2cc[nH]c2n1
> 25 µM: TGI (OVCAR-4 ovarian) | TGI (KM12 colon)
15.4 µM: TGI (SF-268 CNS)
9.56 µM: TGI (SK-MEL-28 melanoma)
11.6 µM: TGI (UO-31 renal)
inactive: GI50 (HT29 colon) 1.5 µM | GI50 (SK-MEL-28 melanoma) 4.77 µM | GI50 (UO-31 renal) 3.79 µM | GI50 (NCI-H460 lung) 6.16 µM | GI50 (OVCAR-4 ovarian) 7.54 µM | GI50 (SF-268 CNS) 5.21 µM | GI50 (KM12 colon) 5.56 µM | GI50 (M14 melanoma) 4.13 µM | GI50 (SF-539 CNS) 3.94 µM | GI50 (UACC-62 melanoma) 4.06 µM
8.04 µM: TGI (M14 melanoma)
> 23.5 µM: TGI (NCI-H460 lung)
5.54 µM: TGI (HT29 colon)
8.53 µM: TGI (UACC-62 melanoma)
8.15 µM: TGI (SF-539 CNS)

Cc1ccc(NC(=O)CC/C(CC(=O)C(C)(C)C)=N/NC(=O)C(N)=O)cc1C
> 100 µM: TGI (HT29 colon) | TGI (SK-MEL-28 melanoma) | TGI (UO-31 renal) | TGI (NCI-H460 lung) | TGI (OVCAR-4 ovarian) | TGI (SF-268 CNS) | TGI (KM12 colon) | TGI (M14 melanoma) | TGI (SF-539 CNS) | TGI (UACC-62 melanoma)

Cn1cc(C2=C(c3c4n(c5ccccc35)CCCC4)C(=O)NC2=O)c2ccccc21
> 25 µM: TGI (HT29 colon) | TGI (SK-MEL-28 melanoma) | TGI (UO-31 renal) | TGI (NCI-H460 lung) | TGI (OVCAR-4 ovarian) | TGI (SF-268 CNS) | TGI (KM12 colon) | TGI (M14 melanoma) | TGI (SF-539 CNS) | TGI (UACC-62 melanoma)
inactive: GI50 (HT29 colon) 9.39 µM | GI50 (SK-MEL-28 melanoma) > 21.8 µM | GI50 (UO-31 renal) 11.3 µM | GI50 (NCI-H460 lung) 9.9 µM | GI50 (OVCAR-4 ovarian) > 16.5 µM | GI50 (SF-268 CNS) 12 µM | GI50 (KM12 colon) 9.71 µM | GI50 (M14 melanoma) 13.4 µM | GI50 (SF-539 CNS) 10.5 µM | GI50 (UACC-62 melanoma) 6.32 µM

NC(N)=NS(=O)(=O)c1ccc(Nc2c3ccccc3nc3c(C(=O)N4CCN(CCO)CC4)cccc23)cc1
> 100 µM: TGI (HT29 colon) | TGI (SK-MEL-28 melanoma) | TGI (UO-31 renal) | TGI (NCI-H460 lung) | TGI (OVCAR-4 ovarian) | TGI (SF-268 CNS) | TGI (KM12 colon) | TGI (M14 melanoma) | TGI (SF-539 CNS) | TGI (UACC-62 melanoma)

CC(C)N(C(=O)C12C3C4C5C3C1(C(=O)N(C(C)C)C(C)C)C5(C#N)C42)C(C)C (stereo not given)
> 100 µM: TGI (HT29 colon) | TGI (SK-MEL-28 melanoma) | TGI (UO-31 renal) | TGI (NCI-H460 lung) | TGI (OVCAR-4 ovarian) | TGI (SF-268 CNS) | TGI (KM12 colon) | TGI (M14 melanoma) | TGI (SF-539 CNS) | TGI (UACC-62 melanoma)

CCCCN(CCCC)c1ccc(C(=N)c2ccc(N(C)C)cc2)cc1
3.16 µM: TGI (SF-539 CNS)
2.32 µM: TGI (NCI-H460 lung)
inactive: GI50 (SK-MEL-28 melanoma) 1.31 µM | GI50 (NCI-H460 lung) 0.788 µM | GI50 (SF-268 CNS) 1.3 µM | GI50 (KM12 colon) 0.516 µM | GI50 (M14 melanoma) 0.908 µM | GI50 (SF-539 CNS) 1.53 µM | GI50 (UACC-62 melanoma) 0.449 µM
1.77 µM: TGI (UACC-62 melanoma)
1.75 µM: TGI (KM12 colon)
1.08 µM: TGI (HT29 colon)
2.25 µM: TGI (M14 melanoma)
2.73 µM: TGI (SF-268 CNS)
1.46 µM: TGI (OVCAR-4 ovarian)
1.28 µM: TGI (UO-31 renal)
active: GI50 (HT29 colon) 0.292 µM | GI50 (UO-31 renal) 0.0919 µM | GI50 (OVCAR-4 ovarian) 0.375 µM
2.6 µM: TGI (SK-MEL-28 melanoma)

CC1(C)CCC[C@@]2(C)C1C[C@H](O)[C@@]1(C)O[C@@](C)([C@H](O)CO)CCC21 (stereo not given in full)
> 100 µM: TGI (SK-MEL-28 melanoma) | TGI (NCI-H460 lung) | TGI (OVCAR-4 ovarian) | TGI (SF-268 CNS) | TGI (KM12 colon) | TGI (M14 melanoma) | TGI (SF-539 CNS)
85.3 µM: TGI (UO-31 renal)
96.1 µM: TGI (UACC-62 melanoma)
86 µM: TGI (HT29 colon)

NC(=O)c1cc(-c2ccncc2)cc(-c2ccccc2)c1N
> 25 µM: TGI (HT29 colon) | TGI (SK-MEL-28 melanoma) | TGI (UO-31 renal) | TGI (NCI-H460 lung) | TGI (OVCAR-4 ovarian) | TGI (SF-268 CNS) | TGI (KM12 colon) | TGI (M14 melanoma) | TGI (SF-539 CNS) | TGI (UACC-62 melanoma)
inactive: GI50 (HT29 colon) > 25 µM | GI50 (SK-MEL-28 melanoma) > 25 µM | GI50 (UO-31 renal) 6.41 µM | GI50 (NCI-H460 lung) 22.6 µM | GI50 (OVCAR-4 ovarian) > 20.6 µM | GI50 (SF-268 CNS) > 25 µM | GI50 (KM12 colon) > 25 µM | GI50 (M14 melanoma) > 25 µM | GI50 (SF-539 CNS) 10.8 µM | GI50 (UACC-62 melanoma) > 24.1 µM

CC12CCC([C@H](N3CCOCC3)/C1=N\OCCN1CCCC1)C2(C)C (stereo not given in full)
> 100 µM: TGI (HT29 colon) | TGI (SK-MEL-28 melanoma) | TGI (UO-31 renal) | TGI (NCI-H460 lung) | TGI (OVCAR-4 ovarian) | TGI (SF-268 CNS) | TGI (KM12 colon) | TGI (M14 melanoma) | TGI (SF-539 CNS) | TGI (UACC-62 melanoma)

C/C(=N/NC(=O)c1ccncc1)c1ccc(NC(=O)C(=O)Nn2c(=S)[nH]c3ccccc3c2=O)cc1
> 100 µM: TGI (HT29 colon) | TGI (SK-MEL-28 melanoma) | TGI (UO-31 renal) | TGI (NCI-H460 lung) | TGI (OVCAR-4 ovarian) | TGI (SF-268 CNS) | TGI (KM12 colon) | TGI (M14 melanoma) | TGI (SF-539 CNS) | TGI (UACC-62 melanoma)

COc1cccc(C(=O)Nc2ccc(CN3CCc4nc5cc(OC)c(OC)cc5cc43)cc2)c1
8.71 µM: TGI (NCI-H460 lung)
23.8 µM: TGI (SF-539 CNS)
5.29 µM: TGI (KM12 colon)
inactive: GI50 (HT29 colon) 2.59 µM | GI50 (SK-MEL-28 melanoma) 7.15 µM | GI50 (UO-31 renal) 3.36 µM | GI50 (NCI-H460 lung) 2.84 µM | GI50 (OVCAR-4 ovarian) 3.32 µM | GI50 (SF-268 CNS) 6.51 µM | GI50 (KM12 colon) 2.09 µM | GI50 (M14 melanoma) 3.76 µM | GI50 (SF-539 CNS) 5.51 µM | GI50 (UACC-62 melanoma) 7.13 µM
7.05 µM: TGI (HT29 colon)
21.3 µM: TGI (UACC-62 melanoma)
60.1 µM: TGI (UO-31 renal)
> 100 µM: TGI (SK-MEL-28 melanoma) | TGI (OVCAR-4 ovarian) | TGI (SF-268 CNS)
16.4 µM: TGI (M14 melanoma)

COc1ccc(C2=Nc3ccccc3SC(C)C2)cc1 (stereo not given)
> 100 µM: TGI (HT29 colon) | TGI (SK-MEL-28 melanoma) | TGI (UO-31 renal) | TGI (NCI-H460 lung) | TGI (OVCAR-4 ovarian) | TGI (SF-268 CNS) | TGI (KM12 colon) | TGI (M14 melanoma) | TGI (SF-539 CNS) | TGI (UACC-62 melanoma)

COc1cc2ccccc2c2cc([N+](=O)[O-])oc12
> 27.1 µM: TGI (SF-268 CNS)
7.75 µM: TGI (SF-539 CNS)
21.9 µM: TGI (HT29 colon)
3.1 µM: TGI (UO-31 renal)
1.06 µM: TGI (NCI-H460 lung)
> 44 µM: TGI (OVCAR-4 ovarian)
2.36 µM: TGI (UACC-62 melanoma)
0.608 µM: TGI (M14 melanoma)
0.695 µM: TGI (SK-MEL-28 melanoma)
4.68 µM: TGI (KM12 colon)
